Data: patent US20230312577A1, “DUAL KINASE-BROMODOMAIN INHIBITORS” (MONASH UNIVERSITY, priority 2020, published 2023)

What follows are compounds tested on OPM2 cells (assay: Cell proliferation assay (ViaLight, cellular ATP)). Details: Homo sapiens, OPM-2, 120 h, 5 days, 5 μM to 1 nM.
Assay type: cell-based
Description: OPM2 cells (1×10^3) were plated in a 96 well plate. Test compounds were added to cells at final concentrations ranging from 5 μM to 1 nM. They were incubated for 5 days before they were analysed using ViaLight luminescence-based proliferation assays which detect cellular ATP, as per the manufacturer's instructions. All samples were prepared in technical triplicates. Data analysis was performed in GraphPad Prism version 7.00 for Mac OS X, (GraphPad Software, San Diego California USA) in order to calculate the GI50.

`CC(=O)N1c2ccc(-c3ccc(NC(=O)CNC(=O)c4nc5c(N6CCOCC6)nc(-c6cnc(N)nc6)cn5c4C)cc3)cc2CC[C@@H]1C` [Cpd 048, (S)-N-(2-((4-(1-acetyl-2-methyl-1,2,3,4-tetrahydroquinolin-6-yl)phenyl)amino)-2-oxoethyl)-6-(2-aminopyrimidin-5-yl)-3-methyl-8-morpholinoimidazo[1,2-a]pyrazine-2-carboxamide] and `CC(=O)N1c2ccc(-c3cccc(CCNC(=O)c4nc5c(N6CCOCC6)nc(-c6cnc(N)nc6)cn5c4C)c3)cc2CC[C@@H]1C` [Cpd 050, (S)-N-(3-(1-acetyl-2-methyl-1,2,3,4-tetrahydroquinolin-6-yl)phenethyl)-6-(2-aminopyrimidin-5-yl)-3-methyl-8-morpholinoimidazo[1,2-a]pyrazine-2-carboxamide] cannot be ordered by GI50: no more than 100 nM for the first, 100 to 500 nM for the second.

`CC(=O)N1c2ccc(-c3cccc(NC(=O)CNC(=O)c4sc5c(N6CCOCC6)nc(-c6cnc(N)nc6)nc5c4C)c3)cc2CC[C@@H]1C` [Cpd 049, (S)-N-(2-((3-(1-acetyl-2-methyl-1,2,3,4-tetrahydroquinolin-6-yl)phenyl)amino)-2-oxoethyl)-2-(2-aminopyrimidin-5-yl)-7-methyl-4-morpholinothieno[3,2-d]pyrimidine-6-carboxamide] and `CC(=O)N1c2ccc(-c3cccc(CCNC(=O)c4sc5c(N6CCOCC6)nc(-c6cnc(N)nc6)nc5c4C)c3)cc2CC[C@@H]1C` [Cpd 051, (S)-N-(3-(1-acetyl-2-methyl-1,2,3,4-tetrahydroquinolin-6-yl)phenethyl)-2-(2-aminopyrimidin-5-yl)-7-methyl-4-morpholinothieno[3,2-d]pyrimidine-6-carboxamide] fall in the same range of GI50: 100 to 500 nM for the first, 100 to 500 nM for the second.

Compared with `CC(=O)N1c2ccc(-c3cnn(C4CCN(Cc5sc6c(N7CCOCC7)nc(-c7cnc(N)nc7)nc6c5C)CC4)c3)cc2CC[C@@H]1C` [Cpd 052, (S)-1-(6-(1-(1-((2-(2-aminopyrimidin-5-yl)-7-methyl-4-morpholinothieno[3,2-d]pyrimidin-6-yl)methyl)piperidin-4-yl)-1H-pyrazol-4-yl)-2-methyl-3,4-dihydroquinolin-1(2H)-yl)ethan-1-one], `CC(=O)N1c2ccc(-c3cnn(C4CCN(C(=O)c5sc6c(N7CCOCC7)nc(-c7cnc(N)nc7)nc6c5C)CC4)c3)cc2CC[C@@H]1C` [Cpd 053, (S)-1-(6-(1-(1-(2-(2-aminopyrimidin-5-yl)-7-methyl-4-morpholinothieno[3,2-d]pyrimidine-6-carbonyl)piperidin-4-yl)-1H-pyrazol-4-yl)-2-methyl-3,4-dihydroquinolin-1(2H)-yl)ethan-1-one] is lower in GI50: greater than 500 nM for the first, no more than 100 nM for the second.

First: CC(=O)N1c2ccc(-c3ccc(CNCc4sc5c(N6CCOCC6)nc(-c6cnc(N)nc6)nc5c4C)cc3)cc2CC[C@@H]1C [Cpd 055, (S)-1-(6-(4-((((2-(2-aminopyrimidin-5-yl)-7-methyl-4-morpholinothieno[3,2-d]pyrimidin-6-yl)methyl)amino)methyl)phenyl)-2-methyl-3,4-dihydroquinolin-1(2H)-yl)ethan-1-one]
Second: CC(=O)N(Cc1ccc(-c2ccc3c(c2)CC[C@H](C)N3C(C)=O)cc1)Cc1sc2c(N3CCOCC3)nc(-c3cnc(N)nc3)nc2c1C [Cpd 056, (S)-N-(4-(1-Acetyl-2-methyl-1,2,3,4-tetrahydroquinolin-6-yl)benzyl)-N-((2-(2-aminopy-rimidin-5-yl)-7-methyl-4-morpholinothieno[3,2-d]pyrimidin-6-yl)methyl)acetamide]
The GI50 of the first is higher: greater than 500 nM for the first, 100 to 500 nM for the second.

First: CC(=O)N1c2ccc(-c3ccc(CNC(=O)c4cn5cc(-c6cnc(N)cc6C(F)(F)F)nc(N6CCOCC6)c5n4)cc3)cc2CC[C@@H]1C [Cpd 057, (S)-N-(4-(1-Acetyl-2-methyl-1,2,3,4-tetrahydroquinolin-6-yl)benzyl)-6-(6-amino-4-(tri-fluoromethyl)pyridin-3-yl)-8-morpholinoimidazo[1,2-a]pyrazine-2-carboxamide]
Second: CC(=O)N1c2ccc(-c3ccc(CNC(=O)c4cn5cc(-c6cccc7[nH]ncc67)nc(N6CCOCC6)c5n4)cc3)cc2CC[C@@H]1C [Cpd 059, (S)-N-(4-(1-Acetyl-2-methyl-1,2,3,4-tetrahydroquinolin-6-yl)benzyl)-6-(1H-indazol-4-yl)-8-morpholinoimidazo[1,2-a]pyrazine-2-carboxamide]
The GI50 of the first is higher: greater than 500 nM for the first, no more than 100 nM for the second.

`COc1ccc(-c2cn3cc(C(=O)NCc4ccc(-c5ccc6c(c5)CC[C@H](C)N6C(C)=O)cc4)nc3c(N3CCOCC3)n2)cn1` [Cpd 058, (S)-N-(4-(1-Acetyl-2-methyl-1,2,3,4-tetrahydroquinolin-6-yl)benzyl)-6-(6-methoxypyridin-3-yl)-8-morpholinoimidazo[1,2-a]pyrazine-2-carboxamide] and `CC(=O)N1c2ccc(-c3ccc(CNC(=O)c4cn5cc(-c6cnc(N)nc6)cc(N6CCOCC6)c5n4)cc3)cc2CC[C@@H]1C` [Cpd 074, (S)-N-(4-(1-Acetyl-2-methyl-1,2,3,4-tetrahydroquinolin-6-yl)benzyl)-6-(2-aminopyrimidin-5-yl)-8-morpholinoimidazo[1,2-a]pyridine-2-carboxamide] cannot be ordered by GI50: 100 to 500 nM for the first, no more than 100 nM for the second.

`CC(=O)N1c2ccc(-c3ccc(CNC(=O)c4cn5cc(-n6c(C(F)F)nc7ccccc76)nc(N6CCOCC6)c5n4)cc3)cc2CC[C@@H]1C` [Cpd 060, (S)-N-(4-(1-Acetyl-2-methyl-1,2,3,4-tetrahydroquinolin-6-yl)benzyl)-6-(2-(difluoromethyl)-1H-benzo[d]imidazol-1-yl)-8-morpholinoimidazo[1,2-a]pyrazine-2-carboxamide] and `CC(=O)N1c2ccc(-c3ccc(CNC(=O)c4cc5c(N6CCOCC6)nc(-c6cnc(N)nc6)cn5n4)cc3)cc2CC[C@@H]1C` [Cpd 067, (S)-N-(4-(1-Acetyl-2-methyl-1,2,3,4-tetrahydroquinolin-6-yl)benzyl)-6-(2-aminopyrimidin-5-yl)-4-morpholinopyrazolo[1,5-a]pyrazine-2-carboxamide] cannot be ordered by GI50: no more than 100 nM for the first, no more than 100 nM for the second.

`CC(=O)N1c2ccc(-c3ccc(C(C)(C)NC(=O)c4cn5cc(-c6cnc(N)nc6)nc(N6CCOCC6)c5n4)cc3)cc2CC[C@@H]1C` [Cpd 061, (S)-N-(2-(4-(1-Acetyl-2-methyl-1,2,3,4-tetrahydroquinolin-6-yl)phenyl)propan-2-yl)-6-(2-aminopyrimidin-5-yl)-8-morpholinoimidazo[1,2-a]pyrazine-2-carboxamide] and `CC(=O)N1c2ccc(-c3ccc([C@H](C)NC(=O)c4cn5cc(-c6cnc(N)nc6)nc(N6CCOCC6)c5n4)cc3)cc2CC[C@@H]1C` [Cpd 062, N-((S)-1-(4-((S)-1-Acetyl-2-methyl-1,2,3,4-tetrahydroquinolin-6-yl)phenyl)ethyl)-6-(2-aminopyrimidin-5-yl)-8-morpholinoimidazo[1,2-a]pyrazine-2-carboxamide] cannot be ordered by GI50: 100 to 500 nM for the first, no more than 100 nM for the second.

`CC(=O)N1c2ccc(-c3ccc([C@@H](C)NC(=O)c4cn5cc(-c6cnc(N)nc6)nc(N6CCOCC6)c5n4)cc3)cc2CC[C@@H]1C` [Cpd 063, N-((R)-1-(4-((S)-1-Acetyl-2-methyl-1,2,3,4-tetrahydroquinolin-6-yl)phenyl)ethyl)-6-(2-aminopyrimidin-5-yl)-8-morpholinoimidazo[1,2-a]pyrazine-2-carboxamide] and `CC(=O)N1c2ccc(-c3ccc(CNC(=O)c4cn5cc(-c6cnc(N)nc6)nc(N6CCCCC6)c5n4)cc3)cc2CC[C@@H]1C` [Cpd 064, (S)-N-(4-(1-Acetyl-2-methyl-1,2,3,4-tetrahydroquinolin-6-yl)benzyl)-6-(2-aminopyrimidin-5-yl)-8-(piperidin-1-yl)imidazo[1,2-a]pyrazine-2-carboxamide] cannot be ordered by GI50: no more than 100 nM for the first, 100 to 500 nM for the second.

`CC(=O)N1c2ccc(-c3ccc(CNC(=O)c4cc5c(N6CCOCC6)nc(-c6cnc(N)nc6)c(Cl)n5n4)cc3)cc2CC[C@@H]1C` [Cpd 068, (S)-N-(4-(1-Acetyl-2-methyl-1,2,3,4-tetrahydroquinolin-6-yl)benzyl)-6-(2-aminopyrimidin-5-yl)-7-chloro-4-morpholinopyrazolo[1,5-a]pyrazine-2-carboxamide] and `CC(=O)N1c2ccc(-c3ccc(CNC(=O)c4cc5c(N6CCOCC6)nc(-c6cnc(N)nc6)cn5c4)cc3)cc2CC[C@@H]1C` [Cpd 069, (S)-N-(4-(1-Acetyl-2-methyl-1,2,3,4-tetrahydroquinolin-6-yl)benzyl)-3-(2-aminopyrimidin-5-yl)-1-morpholinopyrrolo[1,2-a]pyrazine-7-carboxamide] cannot be ordered by GI50: no more than 100 nM for the first, no more than 100 nM for the second.

`CC(=O)N1c2ccc(-c3ccc(CNC(=O)c4cn5c(N6CCOCC6)nc(-c6cnc(N)nc6)cc5n4)cc3)cc2CC[C@@H]1C` [Cpd 070, (S)-N-(4-(1-Acetyl-2-methyl-1,2,3,4-tetrahydroquinolin-6-yl)benzyl)-7-(2-aminopyrimidin-5-yl)-5-morpholinoimidazo[1,2-c]pyrimidine-2-carboxamide] and `CC(=O)N1c2ccc(-c3ccc(CNC(=O)c4nc5c(N6CCOCC6)nc(-c6cnc(N)nc6)cn5n4)cc3)cc2CC[C@@H]1C` [Cpd 072, (S)-N-(4-(1-Acetyl-2-methyl-1,2,3,4-tetrahydroquinolin-6-yl)benzyl)-6-(2-aminopyrimidin-5-yl)-8-morpholino-[1,2,4]triazolo[1,5-a]pyrazine-2-carboxamide] cannot be ordered by GI50: no more than 100 nM for the first, no more than 100 nM for the second.

`CC(=O)N1c2ccc(-c3ccc(CNC(=O)c4nc5c(N6CCOCC6)nc(-c6cnc(N)nc6)nc5n4C)cc3)cc2CC[C@@H]1C` [Cpd 071, (S)-N-(4-(1-Acetyl-2-methyl-1,2,3,4-tetrahydroquinolin-6-yl)benzyl)-2-(2-aminopyrimidin-5-yl)-9-methyl-6-morpholino-9H-purine-8-carboxamide] and `CC(=O)N1c2ccc(-c3ccc(CNC(=O)c4nc5c(N6CCOCC6)cc(-c6cnc(N)nc6)cn5n4)cc3)cc2CC[C@@H]1C` [Cpd 073, (S)-N-(4-(1-Acetyl-2-methyl-1,2,3,4-tetrahydroquinolin-6-yl)benzyl)-6-(2-aminopyrimidin-5-yl)-8-morpholino-[1,2,4]triazolo[1,5-a]pyridine-2-carboxamide] cannot be ordered by GI50: no more than 100 nM for the first, no more than 100 nM for the second.
